Experimental data reported in patent US20210277399A1, “Methods of Imaging and Tracking Nucleic Acids in Cells” (Emory University, priority 2020, published 2021).

What was measured:
Neuro-2a cells [1] = test: Live cell imaging of mRNA in stress granules; assay type: cell-based, Mouse
Procedure: Experiments were performed to determine whether the MGD2/MGA system would be suitable for live cell imaging of endogenous mRNA localization and dynamics. Moreover, experiments were performed to determine whether one could simultaneously track the real-time localization properties of both RNA and proteins within a living cell. For this assay, Neuro-2a cells were co-transfected with expression plasmids for 1×MGA-mCDK6 and dual GFP-tagged G3BP1 protein. The expressed mRNA was labeled with MGD2 and photo crosslinked. The cells were then imaged to record the spatiotemporal features of both mRNA and protein in stress granules. […] Monitoring the signal intensity, the fluorescent signal generated from the MGD2 labeled granules was observed and remained consistent over >25 min of imaging.
After observing the motility and maturation of the granules, experiments were performed to determine whether one could also observe their dissolution. In mammalian cells, stress granules disassemble in the presence of small aliphatic molecules that disrupt weak hydrophobic interactions. Therefore, 1,6-hexanediol, an aliphatic alcohol commonly used for disassembly of stress granules was added. After arsenite-induced stress granule formation, the cells were incubated in 5% 1,6-hexanediol solution. The fluorescence signal of the labeled 1×MGA-mCDK6 was observed. […]

[2] = system: control mGFP mRNA that does not contain the aptamer sequence; test: Effect of UV-irradiation on fluorescence of MGD2 with control mRNA; assay type: binding; settings: up to 15 minutes of UV-irradiation
Procedure: (§1) The effect of UV-irradiation on the fluorescence enhancement was investigated.
(§2) A solution of 30 μM of MGD2 was mixed with 4 μM of the corresponding mRNA in 1×PBS (1.54 mM potassium monobasic, 155.17 mM sodium chloride, and 2.71 mM sodium phosphate dibasic with pH=7.2) and incubated at room temperature for 20 min. For comparison, a solution of MGD2 without any RNA was also prepared in 1×PBS. The fluorescence of these solutions was measured using a BioTek Cytation™ 5 plate reader with ex=620±20 nm and em=680±20 nm. The average fluorescence value from replicate experiments was used to calculate fluorescence enhancement.

Neuro-2a cells [3] = test: Fixed-cell imaging of MGA-functionalized mCDK6 in stress granules; assay type: cell-based, Mouse
Source text: Fixed cell experiments enable direct comparisons to FISH and validate labeling of the target RNA in cells. As a biological context for testing the labeling method, stress granules were selected. In response to stress conditions, cells form non-membrane-bound cytosolic […] RNA-protein assemblies to stall the translation of mRNA until the cells are no longer under stress. While most mRNAs can be concentrated to stress granules, different mRNAs have vastly distinct localization efficiencies. Using FISH, experiments indicate that the CDK6 mRNA is highly enriched in stress granules of mammalian cells CDK6 was used as a model system to fluorescently label and image the unique distribution pattern of the mRNA. Both the 6× and 1×MGA sequences were inserted at the 5′ end of the transcript, and the construct was placed under the control of the cytomegalovirus (CMV) promoter (FIG. 2A). Mouse neuroblastoma Neuro-2a cells were then transfected with these plasmids and incubated with 30 μM MGD2 for 20 min. The cells were then irradiated using 365 nm UV light to allow for covalent labeling of the aptamer. The media was replaced to washout excess dye, and cell stress conditions were induced by 45 min of arsenite exposure, a well characterized paradigm to induce formation of stress granules. Following fixation and immunofluorescence labeling of the stress granule marker protein (G3BP1), the cells were imaged using confocal microscopy.
To validate that the fluorescence signal observed was arising from labeling of the target CDK6 mRNA, the Neuro-2a cells were simultaneously incubated with FISH probes complementary to the CDK6 sequence but bearing a spectrally orthogonal fluorophore. This experiment also enabled us to directly compare the sensitivity of the MGA/MGD2 system to the commonly used FISH technique for RNA labeling in fixed cells. Following arsenite stress, MGD2 labeling, and cell fixation, the cells were incubated with our custom FISH probes. […] That may be because during FISH labeling, the fluorescent probe is hybridized after the RNA of interest is localized to granules. […]

6×MGA-mGFP = test: In vitro fluorescence enhancement of MGD2 with 6×MGA-mGFP mRNA; assay type: binding
Procedure: (§3) AcGFP mRNA appended with one or six copies of the aptamer sequence at the 5′ end, referred to as 1×MGA-mGFP and 6×MGA-mGFP, respectively, was transcribed.
as §2

[4] = Fluorescence of MGD2 without any RNA in 1×PBS; assay type: physicochemical; settings: MGD2 without RNA in 1×PBS; 30 μM MGD2; ex=620±20 nm, em=680±20 nm
Procedure: as §2

[5] = system: cellular RNA extracted from HeLa cells; test: Determination of MGD2 selectivity in cellular RNA (agarose gel); assay type: biochemical; settings: 10 min UV
Procedure: To determine the selectivity of MGD2 labeling, 6MGA-mGFP (200 ng) was spiked in into cellular RNA extracted from HeLa cells (400 ng) in 1×PBS. […] After 10 min of UV irradiation, the sample was mixed with equal volume of 50% glycerol solution and heated to 70° C. to denature the RNA. This sample was loaded on to 1% agarose gel containing 1% v/v Clorox® bleach2 and Sybr Gold™. After running the gel for 1 h at a constant 100 V, the gel was frozen with dry ice for 10 min and imaged using GE Amersham Typhoon™. This freezing step enhanced the fluorescence output of the malachite green molecule.
Experiments were performed to determine whether this would create problematic background signal during imaging. […] The collective observations from these experiments served as guidelines for irradiation time and dye concentrations used in subsequent cellular labeling experiments.

1×MGA-mGFP = test: In vitro fluorescence enhancement of MGD2 with 1×MGA-mGFP mRNA; assay type: binding
Procedure: as §3, §1, §2

[6] = 6×MGA-mGFP in the presence of MGD2
[7] = 6MGA-mGFP 200 ng in 400 ng HeLa RNA, MGD2 50 μM
[8] = 1×MGA-mGFP in the presence of MGD2

Structure (SMILES): OCCCCCCO [1,6-hexanediol]
- effect on RNA granules (Neuro-2a cells [1]; 5% 1,6-hexanediol, labeled 1×MGA-mCDK6): most of the RNA granules exhibited a more sustained structural integrity
- incubation time after which signal from the protein granules disappeared (Neuro-2a cells [1]; 5% hexanediol, after arsenite-induced stress granule formation): 7 min

Structure (SMILES): CN(C)c1ccc(C(=C2C=CC(=[N+](C)C)C=C2)c2ccc(NC(=O)CCC3(C)N=N3)cc2)cc1 [MGD2, N-(4-((4-(dimethylamino)phenyl)(4-(3-(3-methyl-3H-diazirin-3-yl) Propan amido)phenyl)methylene)cyclohexa-2,5-dien-1-ylidene)-N-methylmethanaminium Chloride]
- fluorescence enhancement with control mRNA [2]: did not result in any detectable fluorescence enhancement
- difference in fluorescence intensity of cytoplasmic mRNA granules, 1×MGA versus 6×MGA (Neuro-2a cells [3]; 1×MGA reduced versus 6×MGA-functionalized mRNA): ~2 fold
- sensitivity of RNA detection compared with FISH (Neuro-2a cells [3]; 1×MGA- and 6×MGA-functionalized mRNAs, FISH probes complementary to CDK6): higher sensitivity for RNA detection than FISH
- labeling in control cells (Neuro-2a cells [3]; cells transfected with CDK6 lacking the MGA sequence, MGD2 and UV irradiation): did not show any labeling
- emission maximum (6×MGA-mGFP; [6]): 660 nm
- excitation maximum (6×MGA-mGFP; [6]): 625 nm
- fluorescence enhancement (6×MGA-mGFP; MGD2 bound to 6×MGA-mGFP, prior to UV-irradiation): > 1000 fold
- fluorescence output (mean) [4]: 6.25
- labeling of aptamer functionalized mRNA spiked into cellular RNA [5, 7]: selectively labeled the aptamer functionalized mRNA
- labeling of cellular RNA [5, 7]: did not have any detectable labeling of cellular RNA
- labeling of other cellular RNAs (bands in the MG channel) ([5]; MGD2 30 μM with 6×MGA-mGFP in presence of cellular RNA): no bands from labeling of other cellular RNAs
- emission maximum (1×MGA-mGFP; [8]): 660 nm
- excitation maximum (1×MGA-mGFP; [8]): 625 nm
- fluorescence enhancement after UV irradiation (1×MGA-mGFP; 1×MGA-mGFP, after 15 minutes of UV irradiation (stabilized)): approximately 140 fold
- fluorescence enhancement (1×MGA-mGFP; MGD2 bound to 1×MGA-mGFP, prior to UV-irradiation): 251 fold
